In ChEMBL document CHEMBL4257591 (J Med Chem, 2018):
Converted amounts (≈) assume the structure as drawn. The source made the active and inactive calls. The rule behind the calls is not given here. Residues, ends and D or L forms follow the SMILES beside them.

Tests used:
[1] = system: Staphylococcus aureus; test: Induction of membrane permeabilization in Staphylococcus aureus KCTC 1621 at 2 times MIC concentration up to 300 secs by SYTOX green uptake assay; assay type: functional, organism-based
[2] = system: Staphylococcus aureus; test: Induction of membrane permeabilization in Staphylococcus aureus KCTC 1621 at 2 to 8 times MIC concentration up to 300 secs by SYTOX green uptake assay; assay type: functional, organism-based
[3] = Hemolytic activity in sheep RBC assessed as free hemoglobin level at 16 uM by ELISA relative to control; assay type: ADME, cell-based, Ovis aries, Erythrocyte; conditions: sheep red blood cells (erythrocytes), read-out: Activity
[4] = system: Escherichia coli; test: Induction of membrane permeabilization in Escherichia coli KCTC 1682 assessed as PI-positive cells at 4 uM after 1 to 2 hrs by propidium iodide-staining based flow cytometry (reference value: 2.36%); assay type: functional
[5] = system: Staphylococcus aureus; test: Induction of cytoplasmic membrane depolarization in Staphylococcus aureus KCTC 1621 at 2 times MIC concentration by DiSC3(5)-dye based fluorescence spectrophotometry; assay type: functional, organism-based
[6] = system: RAW264.7; test: Cytotoxicity against mouse RAW264.7 cells at 32 uM after 48 hrs by MTT assay relative to control; assay type: cell-based; conditions: raw264.7, 48 h
[7] = system: Staphylococcus aureus; test: Antimicrobial activity against methicillin-resistant Staphylococcus aureus CCARM 3095 after 18 hrs; assay type: functional; conditions: CCARM 3095, 18 h
[8] = system: Bacillus subtilis; test: Antimicrobial activity against Bacillus subtilis KCTC 3068 after 18 hrs; assay type: functional; conditions: KCTC 3068, 18 h
[9] = system: Escherichia coli; test: Antimicrobial activity against Escherichia coli KCTC 1682 after 18 hrs; assay type: functional; conditions: KCTC 1682, 18 h
[10] = system: Staphylococcus aureus; test: Bactericidal activity against Staphylococcus aureus KCTC 1621 at MIC concentration after 30 mins by time kill assay; assay type: functional, organism-based
[11] = system: Pseudomonas aeruginosa; test: Antimicrobial activity against Pseudomonas aeruginosa KCTC 1637 after 18 hrs; assay type: functional; conditions: KCTC 1637, 18 h
[12] = system: Salmonella typhimurium; test: Antimicrobial activity against Salmonella typhimurium KCTC 1926 after 18 hrs; assay type: functional, Salmonella enterica subsp. enterica serovar Typhimurium; conditions: Salmonella enterica, KCTC 1926, 18 h
[13] = system: Staphylococcus aureus; test: Antimicrobial activity against Staphylococcus aureus KCTC 1621 after 18 hrs; assay type: functional; conditions: KCTC 1621, 18 h
[14] = system: Escherichia coli; test: Induction of membrane permeabilization in Escherichia coli KCTC 1682 assessed as PI-positive cells at 12.5 uM after 1 to 2 hrs by propidium iodide-staining based flow cytometry (reference value: 2.36%); assay type: functional
[15] = system: Pseudomonas aeruginosa; test: Antimicrobial activity against multidrug-resistant Pseudomonas aeruginosa CCARM 2095 after 18 hrs; assay type: functional; conditions: CCARM 2095, 18 h
[16] = system: Staphylococcus epidermidis; test: Antimicrobial activity against Staphylococcus epidermidis KCTC 1617 after 18 hrs; assay type: functional; conditions: KCTC 1617, 18 h
[17] = Hemolytic activity in sheep RBC assessed as free hemoglobin level up to 256 uM by ELISA relative to control; assay type: ADME, cell-based, Ovis aries, Erythrocyte; conditions: sheep red blood cells (erythrocytes), read-out: Activity
[18] = system: Escherichia coli; test: Bactericidal activity against Escherichia coli KCTC 1682 at MIC concentration after 120 to 180 mins by time kill assay; assay type: functional, organism-based
[19] = system: Enterococcus faecium; test: Antimicrobial activity against vancomycin-resistant Enterococcus faecium ATCC 51559 after 18 hrs; assay type: functional; conditions: ATCC 51559, 18 h
[20] = system: Staphylococcus aureus; test: Antimicrobial activity against methicillin-resistant Staphylococcus aureus CCARM 3089 after 18 hrs; assay type: functional; conditions: CCARM 3089, 18 h
[21] = system: Staphylococcus aureus; test: Induction of cytoplasmic membrane depolarization in Staphylococcus aureus KCTC 1621 at 2 to 8 times MIC concentration by DiSC3(5)-dye based fluorescence spectrophotometry; assay type: functional, organism-based
[22] = system: DNA; test: Binding affinity to Escherichia coli pBR322 DNA assessed as inhibition of DNA migration at 16 uM after 1 hr by agarose gel electrophoresis and UV spectroscopy; assay type: nucleic-acid assay
[23] = system: Staphylococcus aureus; test: Antimicrobial activity against methicillin-resistant Staphylococcus aureus CCARM 3090 after 18 hrs; assay type: functional; conditions: CCARM 3090, 18 h
[24] = system: RAW264.7; test: Cytotoxicity against mouse RAW264.7 cells at 512 uM after 48 hrs by MTT assay; assay type: cell-based; conditions: raw264.7, 48 h

Q: Which Activity [1] does the source give for `CC[C@H](C)[C@H](NC(=O)CN)C(=O)NCC(=O)N[C@@H](C)C(=O)N[C@H](C(=O)N[C@@H](CC(C)C)C(=O)N[C@@H](CCCCN)C(=O)N[C@H](C(=O)N[C@@H](CC(C)C)C(=O)N[C@H](C(=O)N[C@H](C(=O)NCC(=O)N[C@@H](CC(C)C)C(=O)N1CCC[C@H]1C(=O)N[C@@H](C)C(=O)N[C@@H](CC(C)C)C(=O)N[C@H](C(=O)N[C@@H](CO)C(=O)N[C@@H](Cc1c[nH]c2ccccc12)C(=O)N[C@H](C(=O)N[C@@H](CCCCN)C(=O)N[C@@H](CCCNC(=N)N)C(=O)N[C@@H](CCCCN)C(=O)N[C@@H](CCCNC(=N)N)C(=O)N[C@@H](CCC(N)=O)C(=O)N[C@@H](CCC(N)=O)C(N)=O)[C@@H](C)CC)[C@@H](C)CC)[C@@H](C)O)[C@@H](C)O)C(C)C)C(C)C` [MELITTIN] here?
A: Active

Q: And the Activity [2]?
A: inactive

Q: And the hemolysis at 16 µM [3]?
A: 63%

Q: What about the Activity [4] of the same molecule?
A: 55.5%

Q: And the Activity [5]?
A: Active

Q: What about the Activity [6] of the same molecule?
A: 100%

Q: With `CC[C@H](C)[C@H](NC(=O)[C@@H](NC(=O)[C@H](Cc1cnc[nH]1)NC(=O)[C@H](CCCNC(=N)N)NC(=O)[C@H](C)NC(=O)[C@H](CCCNC(=N)N)NC(=O)[C@H](CC(C)C)NC(=O)[C@H](CO)NC(=O)[C@H](C)NC(=O)[C@H](CO)NC(=O)[C@H](CC(C)C)NC(=O)[C@@H](N)CC(N)=O)[C@@H](C)O)C(=O)N1CCC[C@H]1C(=O)N[C@@H](CCC(N)=O)C(=O)N[C@@H](CO)C(=O)N[C@@H](CCCNC(=N)N)C(=O)N[C@@H](CCCCN)C(=O)N[C@@H](Cc1ccccc1)C(=O)NCC(=O)N[C@@H](CCCNC(=N)N)C(=O)N[C@@H](CCCNC(=N)N)C(N)=O` (H-NLSASLRARHTIPQSRKFGRR-NH2) as the molecule, how does the MIC [7] read?
A: 25 µM (≈ 61.3 µg/mL)

Q: What about the Activity [2] of the same molecule?
A: inactive

Q: And the MIC [8]?
A: 12.5 µM (≈ 30.6 µg/mL)

Q: What about the MIC [9] of the same molecule?
A: 6.3 µM (≈ 15.4 µg/mL)

Q: What about the Activity [10] of the same molecule?
A: Active

Q: And the MIC [11]?
A: 6.3 µM (≈ 15.4 µg/mL)

Q: What about the MIC [12] of the same molecule?
A: 6.3 µM (≈ 15.4 µg/mL)

Q: And the MIC [13]?
A: 12.5 µM (≈ 30.6 µg/mL)

Q: And the Activity [14]?
A: 3.66%

Q: What about the MIC [15] of the same molecule?
A: 12.5 µM (≈ 30.6 µg/mL)

Q: What about the MIC [16] of the same molecule?
A: 6.3 µM (≈ 15.4 µg/mL)

Q: And the hemolysis [17]?
A: < 1%

Q: What about the Activity [18] of the same molecule?
A: Active

Q: What about the MIC [19] of the same molecule?
A: 50 µM (≈ 123 µg/mL)

Q: What about the MIC [20] of the same molecule?
A: 25 µM (≈ 61.3 µg/mL)

Q: And the Activity [21]?
A: inactive

Q: And the Activity [22]?
A: Active

Q: What about the MIC [23] of the same molecule?
A: 50 µM (≈ 123 µg/mL)

Q: What about the Activity [24] of the same molecule?
A: Non-Toxic
